Among the data in ChEMBL document CHEMBL4842386, “Discovery of Reldesemtiv, a Fast Skeletal Muscle Troponin Activator for the Treatment of Impaired Muscle Function” (J Med Chem, 2021) are EC40, CLint scaled and EC30 values, retold here.

Each structure is given as a SMILES string. The source made the active and inactive calls. The calls are words filed in the database; no cut-off is given here. Bounds are passed on as bounds.

In data set [1] the test system is Psoas muscle. As to the kind of experiment: Activation of fast twitch skeletal muscle in rabbit psoas muscle myofibrils by measuring increase in myofibril ATPase activity at 25% calcium concentration. It is filed as functional. The following applies: Oryctolagus cuniculus.
The nature of data set [2]: Metabolic stability in human liver microsomes assessed as intrinsic clearance measured after 90 mins by HPLC/MS/MS analysis. The format is ADME, Microsome. The following applies: read-out: CLH.
Data set [3] has as its system Psoas muscle. As to the kind of experiment: Increase in psoas muscle force in rabbit skinned single fiber preparation at a calcium concentration that produces a force increase that is 25% of the maximum response in a control preparation by skinned fast skeletal muscle fiber assay. It is filed as functional. Conditions: Oryctolagus cuniculus.

On to `CC(C)(CNc1ccc(-c2cccc(C(N)=O)c2)nc1)c1ccc(F)cc1`, for which, in the data set on Psoas muscle [1], the EC40 amounted to 0.3 µM.

On to `CC(Cc1ccc(Cl)cc1)Nc1nc(Cc2ccc(F)cc2)ns1` (configuration not stated), for which, in the data set on Psoas muscle [1], the EC40 stood at 22.1 µM.

In the case of `NC(=O)c1cccc(-c2ccc(NCC3(c4cnccn4)CCC3)nn2)c1`, in the data set with Psoas muscle [1], the EC40 amounted to 46.1 µM. Moreover, the CLint scaled in data set [2] was below 7 mL/min/kg.

For the molecule `NC(=O)c1cc(-c2ccc(NCC3(c4ncccc4F)CCC3)nn2)ncn1`, the EC40 in the data set with Psoas muscle [1] is 4.4 µM.

Regarding `NC(=O)c1ccn(-c2ccc(NCC3(c4ncccc4F)CCC3)nn2)n1`, the EC40 in the data set on Psoas muscle [1] was 22.7 µM.

Broadly, the EC30 is the point of the concentration-response curve where the effect stands at 30%. On to `CC(C)(CNc1cnc(-c2cccc(C(N)=O)c2)cn1)c1ccc(F)cc1`, for which the EC30 result in the data set on Psoas muscle [3] was “inactive”. The EC40 in the data set on Psoas muscle [1] amounted to 0.8 µM.

For `CC(C)(CNc1ncc(-c2cccc(C(N)=O)c2)cn1)c1ccc(F)cc1`, in the data set with Psoas muscle [3], the EC30 was 7.8 µM. In addition, the EC40 in the data set on Psoas muscle [1] is 8.7 µM. The CLint scaled in data set [2] is 6 mL/min/kg.

`NC(=O)c1cnc(-c2ccc(NCC3(c4ncccc4F)CCC3)nn2)o1`: the EC30 in the data set on Psoas muscle [3] came out at 5.4 µM. The EC40 in the data set on Psoas muscle [1] is 3.9 µM.

On to `CC(C)(CNc1nsc(-c2cccc(C(N)=O)c2)n1)c1ccc(F)cc1`, for which the EC30 in the data set on Psoas muscle [3] was found to be 7.1 µM. In addition, in the data set on Psoas muscle [1], the EC40 came out at 0.5 µM.

In the case of `NC(=O)c1cccc(-c2ccc(NCC3(c4ncccc4F)CCC3)nn2)c1`, in the data set on Psoas muscle [3], the EC30 stood at 0.5 µM. The EC40 in the data set with Psoas muscle [1] was 0.3 µM. In data set [2], the CLint scaled is 11 mL/min/kg.

For `CN(C)C(=O)c1cnn(-c2ccc(NCC3(c4ncccc4F)CCC3)nn2)c1`, the EC40 with Psoas muscle [1] turned out to be 20.2 µM.

As for `NC(=O)c1cccc(-c2ccc(NCC3(c4ccccn4)CCC3)nn2)c1`, the EC30 with Psoas muscle [3] came out at 0.9 µM. Also, the EC40 with Psoas muscle [1] worked out at 0.5 µM. Besides, the CLint scaled in data set [2] is below 7 mL/min/kg.

For `NC(=O)c1cnn(-c2cnc(NC[C@]3(c4ncccc4F)C[C@H](F)C3)nc2)c1`, the EC30 with Psoas muscle [3] turned out to be 3.3 µM. Moreover, the EC40 with Psoas muscle [1] came to 1.2 µM. For the same molecule, in data set [2], the CLint scaled is below 14 mL/min/kg.

For the molecule `CN(CC1(c2ccccn2)CCC1)c1ccc(-c2cccc(C(N)=O)c2)nn1`, the EC40 with Psoas muscle [1] is above 49 µM.

`CC(C)(CNc1cnc(-c2cccc(C(N)=O)c2)nc1)c1ccc(F)cc1`: the EC40 in the data set on Psoas muscle [1] came to 3.6 µM.

Take `CC(C)(CNc1nc(-c2ccccc2)ns1)c1ccc(F)cc1`: in the data set on Psoas muscle [1], the EC40 amounted to 8.9 µM.

Consider `Fc1ccc(Cc2nsc(NCCc3ccc(Cl)cc3)n2)cc1`, for which the EC30 in the data set with Psoas muscle [3] was determined as 13.7 µM. Also, in the data set with Psoas muscle [1], the EC40 was 4.3 µM.

Turning to `NC(=O)c1cnn(-c2ccc(NCC3(c4ncccc4F)CC(F)(F)C3)nn2)c1`, in the data set with Psoas muscle [3], the EC30 stood at 4 µM. In addition, the EC40 in the data set with Psoas muscle [1] came out at 2.6 µM.

Regarding `CC(C)(CNc1ccc(-c2cccc(C(N)=O)c2)cn1)c1ccc(F)cc1`, the EC30 with Psoas muscle [3] was 1.5 µM. Moreover, in the data set on Psoas muscle [1], the EC40 worked out at 0.5 µM. The CLint scaled in data set [2] was 7 mL/min/kg.

On to `CN(C)C(=O)c1cccc(-c2nsc(NCC(C)(C)c3ccc(F)cc3)n2)c1`, for which, in the data set on Psoas muscle [3], the EC30 is 3.1 µM. Also, the EC40 in the data set with Psoas muscle [1] stood at 2.9 µM.

With `Fc1ccc(CCNc2nc(Cc3ccc(F)cc3)ns2)cc1`, the EC40 with Psoas muscle [1] stood at 9.9 µM.

Regarding `CC(C)CCNc1nc(Cc2ccc(F)cc2)ns1`, the EC40 in the data set with Psoas muscle [1] is above 49 µM.

For the molecule `CC(C)(CNc1ncns1)c1ccc(F)cc1`, the EC40 in the data set on Psoas muscle [1] was determined as 8.4 µM. For the same molecule, the CLint scaled in data set [2] amounted to 30 mL/min/kg.

For the molecule `NC(=O)c1nccc(-c2ccc(NCC3(c4ncccc4F)CCC3)nn2)n1`, the EC40 in the data set on Psoas muscle [1] is above 49 µM.

With `NC(=O)c1cccc(-c2ccc(NCC3(c4ccc(F)cn4)CCC3)nn2)c1`, in the data set on Psoas muscle [3], the 30% effect concentration (EC30) came out at 2.3 µM. Moreover, in the data set on Psoas muscle [1], the EC40 turned out to be 3.5 µM. Besides, the CLint scaled in data set [2] is below 7 mL/min/kg.

On to `COCCCc1nsc(NCC(C)(C)c2ccc(F)cc2)n1`, for which the EC40 with Psoas muscle [1] amounted to 2.5 µM.

Regarding `NC(=O)c1cccc(-c2ccc(NCC3(c4ccc(F)cc4)CCC3)nn2)c1`, the EC30 in the data set with Psoas muscle [3] came to 0.6 µM. Further, the EC40 with Psoas muscle [1] came to 0.2 µM. Besides, the CLint scaled in data set [2] stood at 15 mL/min/kg.

With `CC(C)(CNc1nc(Cc2ccc(F)cc2)ns1)c1ccc(Cl)cc1`, in the data set on Psoas muscle [3], the EC30 amounted to 7.4 µM. Further, the EC40 in the data set on Psoas muscle [1] worked out at 0.6 µM.

With `Fc1ccc(Cc2nsc(NCCc3ccccc3)n2)cc1`, the EC40 in the data set on Psoas muscle [1] was 23.3 µM.
